Source: patent US20050245559A1, “Treatment and prevention of prostate cancer” (priority 2004, published 2005)

Key:
prostate cancer cells [1] = assay: morphology of cellular organelles of prostate cancer cells; type: cell-based; conditions: about 10 μM and 20 μM tetrandrine
cytochrome-C = assay: mitochondrial cytochrome C release; type: cell-based; conditions: FIG. 8
[2] = tested on: PC3 prostate cancer cells; assay: killing of hormone-independent PC3 prostate cancer cells; type: cell-based; conditions: increasing concentrations, 96 hours of exposure; FIG. 4
LNCaP cells [3] = assay: dose response of LNCaP growth and proliferation, optical density of stained live cells; type: cell-based
Caspase-8 = Caspase-8 activation; type: cell-based; conditions: FIG. 6
[4] = doses of from 100 mg/day to 300 mg/day, prior studies; cited from earlier work
[5] = tested on: PC3 prostate cancer cells; assay: clonogenic activity of PC3 prostate cancer cells; type: cell-based; conditions: dose dependent, FIG. 5
calcium channel = conditions: cited from earlier work
[6] = tested on: LNCaP prostate cancer cells; assay: flow cytometry of apoptosis and necrosis in LNCaP cells; type: cell-based; conditions: 24 hours or 48 hours exposure
Description: (§1) The increasing apoptosis and necrosis in hormone-independent and hormone dependent prostate cancer cells after exposure to tetrandrine occurs in a dose- and time-dependent manner.

[7] = tested on: prostate specific antigen (PSA); assay: DHT-stimulated prostate specific antigen (PSA) expression in LNCaP cells; type: cell-based
LNCaP cells [8] = assay: growth and proliferation of LNCaP cells stimulated by dihydrotestosterone (DHT); type: cell-based
Method: Tetrandrine inhibits the growth and proliferation of prostate cancer cells in a dose- and time-dependent manner. For example, the growth and proliferation of LNCaP cells stimulated by dihydrotestosterone (DHT) and fetal calf serum (FCS) can be stopped or inhibited and, at higher concentrations or at longer exposure times, the cells are killed. Preferably, the concentration of tetrandrine used is between about 10 μM and about 60 μM. […] The cells take on an atrophied appearance after contact with tetrandrine.

prostate cancer cells [9] = assay: cell cycle effect in prostate cancer cells; type: cell-based; conditions: stated as apparent mechanism
Description: as §1

LNCaP cells [10] = assay: growth and proliferation of LNCaP cells stimulated by fetal calf serum (FCS); type: cell-based
Caspase-9 = Caspase-9 activation; type: cell-based; conditions: FIG. 6
Bcl-XL = Bcl-XL down-regulation in prostate cancer cells; type: cell-based; conditions: FIG. 9
Caspase-7 = Caspase-7 activation; type: cell-based; conditions: FIG. 6
Caspase-3 = Caspase-3 activation; type: cell-based; conditions: FIG. 6
PARP = PARP cleavage; type: cell-based; conditions: FIG. 7

With `COc1ccc2cc1Oc1ccc(cc1)CC1c3cc(c(OC)cc3CCN1C)Oc1c(OC)c(OC)cc3c1C(C2)N(C)CC3` (centres unmarked) [tetrandrine, (1B)-6,6′,7,12-tetramethoxy-2,2′-dimethyl-berbaman] the “morphology of nuclei and cytoskeleton” value (prostate cancer cells [1]) was “nuclei of prostate cancer cells appear to shrink and round while the cytoskeleton is disrupted”, the “cytoplasmic cytochrome-C” value (cytochrome-C) was “concentration-dependent increase” and the “mitochondrial cytochrome-C” value (cytochrome-C) was “concentration-dependent decrease”. The “killing of hormone-independent PC3 cells” value [2] was “dose-dependent killing”, the “death of LNCaP cells at longer exposure” value (LNCaP cells [3]; 48 hours and 72 hours versus 24 hours, each concentration) was “death of LNCaP cells is greater” and the “growth of LNCaP cells, stained live cells” value (LNCaP cells [3]; about 5 μM tetrandrine, 24 hours) was “growth of LNCaP cells is inhibited”. For the same compound, the “killing of LNCaP cells, stained live cells” value (LNCaP cells [3]; about 60 μM tetrandrine, 24 hours) was “almost all LNCAP cells are killed”, the Caspase-8 activation (Caspase-8) was “concentration-dependent increase” and the toxicity [4] was “minimal toxicity”. For the same compound, the “clonogenic activity of PC3 cells” value [5] was “inhibition of the clonogenic activity”, the “clonogenic activity of PC3 cells” value ([5]; listed as Tetrandrine) was “inhibits the clonogenic activity” and the “calcium channel blocker activity” value (calcium channel) was “minimal”. For the same compound, the “apoptosis and necrosis by flow cytometry” value [6] was “increasing apoptosis and necrosis in a dose- and time-dependent manner”, the “DHT-stimulated PSA expression” value [7] was “inhibits DHT-stimulated prostate specific antigen (PSA) expression in a dose-dependent manner” and the “cell number and morphology of LNCaP cells in presence of FCS and DHT” value (LNCaP cells [8]; about 10 μM to about 20 μM tetrandrine, FIG. 2B) was “decrease in cell number and atrophied appearance”. The “growth and proliferation of LNCaP cells stimulated by DHT” value (LNCaP cells [8]; about 10 μM to about 60 μM tetrandrine, FIG. 1A) was “inhibition of the growth and proliferation”, the “mechanism of decreased proliferation / increased apoptosis (cell cycle)” value (prostate cancer cells [9]) was “cell cycle arrest in G1” and the “cell number and morphology of LNCaP cells growing under FCS” value (“cell number and morphology … under FCS” for short) (LNCaP cells [10]; 10 μM tetrandrine, FIG. 2A) was “decrease in cell number and the notable change in cell morphology”. The “cell number and morphology … under FCS” value (LNCaP cells [10]; 20 μM tetrandrine, FIG. 2A) was “the decrease in cell number and the change in cell morphology is even more apparent”, the “growth and proliferation of LNCaP cells stimulated by FCS” value (LNCaP cells [10]; about 10 μM to about 60 μM tetrandrine, FIG. 1B) was “inhibition of the growth and proliferation” and the “cell number and morphology … under FCS” value (LNCaP cells [10]; concentration not given) was “sharp decrease in cell number and a significant change in cell morphology”. For the same compound, the Caspase-9 activation (Caspase-9) was “concentration-dependent increase”, the “Bcl-XL level in prostate cancer cells” value (Bcl-XL) was “concentration-dependent down-regulation” and the Caspase-7 activation (Caspase-7) was “concentration-dependent increase”. The Caspase-3 activation (Caspase-3) was “concentration-dependent increase” and the PARP cleavage (PARP) was “concentration-dependent increase”.
